This is an account of results in PMC12292992, “Betulinic Acid ω-Triphenylphosphonium Alkyl Esters: Antiproliferative Activities and In Silico Pharmacokinetic Profiles” (Biomedicines, 2025).

On the set-up of series [1]: method as in PMID 17576843, PMID 17638699. The settings on record: oral administration, healthy individuals and patients with HIV, cited from earlier work.
In a further series the test system is SK-MES-1 cells. The series is described as follows: MTT cell viability assay, lung cancer. Type of series: cell-based. The settings on record: Homo sapiens, SK-MES-1, 72 h. The procedure: (§1) Human cell lines were obtained from the American Type Culture Collection (ATCC, Manassas, VA, USA). Normal lung MRC-5 fibroblasts (ATCC® CCL-171™), SK-MES-1 lung cancer cells (ATCC® HTB-58™), and J82 bladder carcinoma cells (ATCC® HTB-1™) were grown as monolayers in Eagle’s minimum essential medium (MEM) with Earle’s salts, 2 mM L-glutamine, and 1.5 g/L sodium bicarbonate. Gastric epithelial AGS cells (ATCC® CRL-1739™) were grown as monolayers in Ham’s F-12 medium containing 1 mM L-glutamine and 1.5 g/L sodium bicarbonate. Promyelocytic leukemia HL-60 (ATCC® CCL-240™), colorectal adenocarcinoma HCT-15 (ATCC® CCL-225™), metastatic colorectal COLO205 (ATCC® CCL-222™), and breast cancer AU565 (ATCC® CRL-2351™, ER^−-HER2/neu^+) cells were grown in suspension in an RPMI-1640 medium containing 1 mM sodium pyruvate and 2.0 g/L sodium bicarbonate. Human breast cancer MCF-7 (ATCC® HTB-22™, ER^+-HER2/neu^−) and MDA-MB-231 (ATCC® HTB-26™, ER^−-HER2/neu^−) cells were grown as monolayers in DMEM medium. All media were supplemented with 10% heat-inactivated fetal bovine serum (HI-FBS), 100 IU/mL penicillin G, and 100 µg/mL streptomycin. Cells were maintained at 37 °C in a humidified incubator with 5% CO2.
(§2) MRC-5, SK-MES-1, J82, and AGS cells were seeded at a density of 5 × 10^4 cells/mL in 96-well plates. COLO205, HCT-15, MCF-7, MDA-MB-231, and AU565 cells were seeded at 1 × 10^5 cells/mL, while HL-60 cells were plated at 3 × 10^5 cells/mL. A volume of 100 µL of the cell suspension was added to each well. After 24 h, the compounds were added in increasing concentrations (ranging from 0 to 100 µM), and cells were incubated for 24, 48, or 72 h. The compounds were dissolved in DMSO and diluted in complete medium to a final concentration of 0.5% DMSO. Cells treated with 0.5% DMSO in complete medium were used as viability controls (100%). Etoposide (98% purity, Sigma-Aldrich, St. Louis, MO, USA) was used as the reference compound. Each concentration was tested in quadruplicate, and each experiment was performed twice using independent cell preparations. At the end of the incubation period, cell viability was determined using the MTT reduction assay. The results were transformed into percentages relative to controls, and IC50 values were obtained graphically from the dose–response curves. Results are presented as IC50 values ± standard deviation (SD).
On the technique in general: Formazan colour is commonly taken as a measure of viable cells.

For another series, the system named is AGS cells. Briefly: MTT cell viability assay, gastric adenocarcinoma. Type of series: cell-based. The settings on record: Homo sapiens, 72 h. The procedure: as §1, §2
The test system of the next series is HL-60 cells. Briefly: MTT cell viability assay, leukemia. Format: cell-based. The settings on record: Homo sapiens, HL-60, 72 h. The procedure: as §1, §2
Another series has as its system J82 cells. Briefly: MTT cell viability assay, bladder carcinoma. Format: cell-based. The settings on record: Homo sapiens, J82, 72 h. The procedure:
as §1, §2

Series [2] relates to MRC-5 normal human lung fibroblasts. The series is described as follows: MTT cell viability assay, normal lung fibroblasts. Format: cell-based. Conditions: MRC5, MRC-5, 72 h. The procedure: as §1, §2
For another series, the system named is HCT-15 cells. Briefly: MTT cell viability assay, colorectal carcinoma. Format: cell-based, human. The settings on record: Homo sapiens. The procedure:
as §1, §2

The subject of another series is AU565 cells. Briefly: MTT cell viability assay, mammary carcinoma. Type of series: cell-based, human. The settings on record: Homo sapiens. The procedure:
as §1, §2

The test system of a further series is COLO205 cells. Briefly: MTT cell viability assay, metastatic colorectal cancer. Conditions: Homo sapiens, COLO 205. Format: cell-based, human. The procedure:
as §1, §2

In a further series the test system is human cancer cell lines. The series is described as follows: MTT cell viability, summary over the human cancer cell lines. Conditions: nine human cancer cell lines, relative to BA, summary statement. Type of series: cell-based. The procedure: as §1, §2
The subject of series [3] is MCF-7 cells. The series is described as follows: Oxygen consumption assay (Clark-type electrode). Type of series: cell-based, human. The settings on record: MCF-7, 10 and 20 µM. The procedure: Oxygen consumption of the tumor cells was measured polarographically using a Clark-type electrode (Yellow Springs Instruments, Dayton, OH, USA) placed horizontally in a cell of 0.6 mL volume at 25 °C, coupled to a YSI monitor (model 53). The electrode signal was recorded in a computer connected to a DI-148U module with a USB interface. Data were acquired using the Windaq Acquisition Waveform Recorder software v3.36 (DataQ Instruments, Akron, OH, USA). The test medium used contained 150 mM NaCl, 5 mM KCl, and 1 mM Tris-HCl, and pH 7.4. 5 mM glutamine was added with the cells and test compounds. Oxygen consumption was recorded when the cell aliquots (6 × 10^6 cells) were added. Oligomycin (1.5 μg/mL) was added as an inhibitor of the Fo subunit of ATP synthase prior to the incorporation of the compounds under study. FCCP (carbonyl cyanide-p-trifluoromethoxyphenylhydrazone, 50 nM) was used prior to the addition of test compounds as an internal control to calibrate the electrode system and confirm the maximum uncoupling capacity of the cells.

The test system of series [4] is MCF-7 cells. The series is described as follows: MTT cell viability assay, mammary carcinoma. The settings on record: Homo sapiens, MCF7. Format: cell-based. The procedure: as §1, §2
The subject of the next series is MDA-MB-231 cells. The series is described as follows: MTT cell viability assay, mammary carcinoma. Format: cell-based. Conditions: Homo sapiens. The procedure: as §1, §2

For the compound `C=C(C)[C@@H]1CC[C@]2(C(=O)O)CC[C@]3(C)[C@H](CC[C@@H]4[C@@]5(C)CC[C@H](OC(=O)CC(C)(C)C(=O)O)C(C)(C)[C@@H]5CC[C@]43C)[C@@H]12` [Compound 4, 3-O-(3′,3′-Dimethylsuccinyl)-BA], in series [1] (all studied doses), the tolerance result is listed as “good tolerance at all studied doses”. Further, in series [1], the half-life entry is “long half-life” and the oral absorption entry was “rapid oral absorption”.
As for `COc1cc([C@@H]2c3cc4c(cc3[C@@H](O[C@@H]3O[C@@H]5CO[C@@H](C)O[C@H]5[C@H](O)[C@H]3O)[C@H]3COC(=O)[C@H]23)OCO4)cc(OC)c1O` [Etoposide, reference compound], the IC50 in the series on SK-MES-1 cells was found to be 2610 ± 10 nM; with AGS cells it was 460 ± 40 nM; with HL-60 cells, 820 ± 10 nM; with J82 cells, 2850 ± 20 nM; in [2] it was 3960 ± 210 nM.
In the case of `C=C(C)[C@@H]1CC[C@]2(C(=O)O)CC[C@]3(C)[C@H](CC[C@@H]4[C@@]5(C)CC[C@H](O)C(C)(C)[C@@H]5CC[C@]43C)[C@@H]12` [BA, 3β-hydroxy-lup-20(29)-en-28-oic acid, reference compound], the IC50 came out at 44800 ± 2700 nM in the series on SK-MES-1 cells; 14100 ± 500 nM in the series on AGS cells; 43800 ± 3640 nM in the series with HCT-15 cells (HCT-15, 24 h); 9470 ± 3100 nM in the series with HCT-15 cells (HCT-15, 48 h); 3890 ± 1300 nM in the series with HCT-15 cells (HCT-15, 72 h); 33090 ± 170 nM in the series with AU565 cells (AU565, 24 h). Moreover, the IC50 in the series on AU565 cells (AU565, 48 h) turned out to be 9290 ± 980 nM; in the series on HL-60 cells, 21900 ± 1500 nM; in the series on J82 cells, 32800 ± 1700 nM; in the series with COLO205 cells (COLO205, 24 h) it was 97700 ± 1020 nM; in the series on COLO205 cells (COLO205, 48 h), 74600 ± 2870 nM; with COLO205 cells (COLO205, 72 h) it was 34300 ± 2580 nM. The IC50 in series [2] is 56700 ± 4300 nM.
In the case of `C=C(C)[C@@H]1CC[C@]2(C(=O)OCCCCCC[P+](c3ccccc3)(c3ccccc3)c3ccccc3)CC[C@]3(C)C(CCC4[C@@]5(C)CC[C@H](O)C(C)(C)C5CC[C@]43C)C12` (stereo partly drawn) [BA-C6-TPP^+Br^−, 6-Triphenylphosphoniohexyl 3β-hydroxylup-20(29)-en-28-oate bromide], in the series on human cancer cell lines, the increase in potency entry is listed as “over 100 fold”. Besides, the IC50 in the series on SK-MES-1 cells turned out to be 680 ± 10 nM; with AGS cells, 1270 ± 20 nM; in the series with HCT-15 cells (HCT-15, 24 h) it was 9040 ± 2800 nM; with HCT-15 cells (HCT-15, 48 h), 2890 ± 240 nM; in the series with HCT-15 cells (HCT-15, 72 h), 2400 ± 130 nM; in the series on AU565 cells (AU565, 24 h) it was 6370 ± 310 nM. Besides, the half-maximal inhibitory concentration (IC50) in the series on AU565 cells (AU565, 48 h) amounted to 1330 ± 120 nM; in the series with HL-60 cells, 910 ± 10 nM; in the series with J82 cells, 1710 ± 50 nM; in the series with COLO205 cells (COLO205, 24 h), 4870 ± 1430 nM; with COLO205 cells (COLO205, 48 h) it was 840 ± 390 nM; in the series on COLO205 cells (COLO205, 72 h), 970 ± 290 nM. The IC50 in [2] was found to be 1350 ± 100 nM; with MCF-7 cells [4] (MCF-7, 24 h), 7690 ± 1320 nM; in the series on MCF-7 cells [4] (MCF-7, 48 h), 4620 ± 530 nM; in the series on MDA-MB-231 cells (MDA-MB-231, 24 h), 7280 ± 530 nM; in the series with MDA-MB-231 cells (MDA-MB-231, 48 h), 2660 ± 80 nM. For the same compound, the mitochondrial uncoupling effect entry in the series with MCF-7 cells [3] is “not seen at the tested concentrations”.
As for `C=C(C)[C@@H]1CC[C@]2(C(=O)OCCCCC[P+](c3ccccc3)(c3ccccc3)c3ccccc3)CC[C@]3(C)C(CCC4[C@@]5(C)CC[C@H](O)C(C)(C)C5CC[C@]43C)C12` (stereo partly drawn) [BA-C5-TPP^+Br^−, 5-Triphenylphosphoniopentyl 3β-hydroxylup-20(29)-en-28-oate bromide], the increase in potency result in the series on human cancer cell lines is listed as “over 100 fold”. The IC50 in the series on SK-MES-1 cells amounted to 470 ± 40 nM; in the series on AGS cells it was 770 ± 80 nM; in the series with HCT-15 cells (HCT-15, 24 h) it was 5170 ± 1320 nM; with HCT-15 cells (HCT-15, 48 h) it was 1930 ± 360 nM; in the series with HCT-15 cells (HCT-15, 72 h) it was 1930 ± 320 nM; in the series with AU565 cells (AU565, 24 h) it was 5910 ± 80 nM. The concentration for half-maximal inhibition (IC50) amounted to 1020 ± 180 nM in the series on AU565 cells (AU565, 48 h); 630 ± 50 nM in the series on HL-60 cells; 1220 ± 10 nM in the series with J82 cells; 4320 ± 2400 nM in the series on COLO205 cells (COLO205, 24 h); 1620 ± 1150 nM with COLO205 cells (COLO205, 48 h); 1610 ± 20 nM in the series with COLO205 cells (COLO205, 72 h). Besides, the IC50 stood at 830 ± 20 nM in series [2]; 8680 ± 1270 nM in the series with MCF-7 cells [4] (MCF-7, 24 h); 1770 ± 400 nM in the series with MCF-7 cells [4] (MCF-7, 48 h); 5500 ± 600 nM with MDA-MB-231 cells (MDA-MB-231, 24 h); 2530 ± 650 nM with MDA-MB-231 cells (MDA-MB-231, 48 h). Moreover, the mitochondrial uncoupling effect result in the series on MCF-7 cells [3] is “concentration-dependent uncoupling effect, though less pronounced than that of BA-C4-TPP^+Br^−”.

The IC50 is the concentration at which inhibition is half-maximal.
